Assay results published in paper PMC9327782, “Benzoxazole derivatives as new VEGFR-2 inhibitors and apoptosis inducers: design, synthesis, in silico studies, and antiproliferative evaluation” (Journal of Enzyme Inhibition and Medicinal Chemistry, 2022).
Like-named read-outs stand apart in the source and are kept apart here.

What was measured:
MCF-7 cell line = test: In vitro anti-proliferative MTT assay, MCF-7; type: cell-based, human
From the text: (§1) The cytotoxicity results were obtained as median growth inhibitory concentration (IC50).
(§2) MTT assay protocol. This method was applied in accordance with the comprehensive description in Supplementary data. […]
(§3) 5 Raw data of cytotoxity and VEGFR -2 assay […]
(§4) Experimental of biological testing
(§5) 1. In vitro anti-proliferative activity
(§6) MTT assay protocol was applied to assess the anti-proliferative activity of the synthesized compounds. Two human cancer cell lines (MCF-7 and HepG-2) and one normal cell line (WI-38) were used in this test. At first, the cell lines were cultured in RPMI -1640 medium with 10% fetal bovine serum. Antibiotics (100 units/ml penicillin and100 µg/ml streptomycin ) were added at 37 °C in a 5% CO2 incubator. The cell lines were seeded in a 96-well plate at a density of 1.0 x 10^4 cells / well at 37 °C for 24 h under 5% CO2. After incubation, the cells were treated with different […]
(§7) concentration of the synthesized compounds and incubated for 24 h. After 24 h of drug treatment, 20 µl of MTT solution at 5mg/ml was added and incubated for 4 h. Dimethyl sulfoxide (DMSO) in volume of 100 µl was added into each well to dissolve the purple formazan formed. The colorimetric assay was measured and recorded at absorbance of 570 nm using a plate reader (EXL 800, USA). The relative cell viability in percentage was calculated as (A570 of treated samples/A570 of untreated sample) X 100. […]

HepG2 cell line = test: In vitro anti-proliferative MTT assay, HepG2; type: cell-based, human
From the text: as §1, §2, §3, §4, §5, §6, §7

WI-38 cell line = test: In vitro cytotoxicity against normal cell line (MTT); type: cell-based, human; parameters: LogIC50 best-fit value, WI-38: unit not given here; conditions: for IC50: WI-38, normal human lung cell line, MTT; for HillSlope best-fit value, WI-38 / LogIC50 best-fit value, WI-38: supplement raw data, dose-response curve fit
From the text: […]. Such values were very high in comparison to the corresponding values on cancer cell lines, which reflect high safety profile of the tested candidates towards normal cell lines.
as §2, §3, §4, §5, §6, §7

VEGFR-2 = target: T1, VEGFR-2 (Homo sapiens, UniProt P35968); test: In vitro VEGFR-2 kinase assay (ELISA kit); type: biochemical; conditions: for IC50: ELISA kit; for HillSlope best-fit value, VEGFR-2 / LogIC50 best-fit value, VEGFR-2: supplement raw data, curve fit
T1 construct: purchased
Experimental: The assay was applied by ELISA kits in accordance with the comprehensive description in[18]^,[33] as described in Supplementary data. […]
2. In vitro VEGFR-2 kinase assay
All the synthesized compounds were tested for its inhibitory activity against VEGFR-2. Human VEGFR-2 ELISA kit (Enzyme-Linked Immunosorbent Assay) was utilized in this test. At first, specific antibody for VEGFR-2 was seeded on a 96-well plate and 100 μL of the standard solution or the tested compound was added, all were incubated at room temperature for 2.5 h. Then washed, 100 μL of the prepared biotin antibody was added, then incubated at room temperature for additional 1 h. and washed. Then, 100 μL of streptavidin solution was added and incubated for 45 min. at room temperature. Washed again, 100 μL of TMB Substrate reagent was added and incubated for 30 min. at room temperature. 50 μL of the stop solution was added, then read at 450 […]
nm immediately. […]

[1] = Homo sapiens, MCF7, 24 h, MTT, 24 h treatment, mean of three experiments, read-out: In vitro IC50 MCF-7
[2] = Homo sapiens, MCF7, supplement raw data, dose-response curve fit, read-out: LogIC50 best-fit value, MCF-7 (converted)
[3] = Homo sapiens, HepG2, 24 h, MTT, 24 h treatment, mean of three experiments, read-out: In vitro IC50 HepG2
[4] = Homo sapiens, HepG2, supplement raw data, dose-response curve fit, read-out: LogIC50 best-fit value, HepG2 (converted)
[5] = Homo sapiens, HepG2, supplement raw data, dose-response curve fit, read-out: IC50 best-fit value, HepG2

T1 sequence (P35968 20-1356): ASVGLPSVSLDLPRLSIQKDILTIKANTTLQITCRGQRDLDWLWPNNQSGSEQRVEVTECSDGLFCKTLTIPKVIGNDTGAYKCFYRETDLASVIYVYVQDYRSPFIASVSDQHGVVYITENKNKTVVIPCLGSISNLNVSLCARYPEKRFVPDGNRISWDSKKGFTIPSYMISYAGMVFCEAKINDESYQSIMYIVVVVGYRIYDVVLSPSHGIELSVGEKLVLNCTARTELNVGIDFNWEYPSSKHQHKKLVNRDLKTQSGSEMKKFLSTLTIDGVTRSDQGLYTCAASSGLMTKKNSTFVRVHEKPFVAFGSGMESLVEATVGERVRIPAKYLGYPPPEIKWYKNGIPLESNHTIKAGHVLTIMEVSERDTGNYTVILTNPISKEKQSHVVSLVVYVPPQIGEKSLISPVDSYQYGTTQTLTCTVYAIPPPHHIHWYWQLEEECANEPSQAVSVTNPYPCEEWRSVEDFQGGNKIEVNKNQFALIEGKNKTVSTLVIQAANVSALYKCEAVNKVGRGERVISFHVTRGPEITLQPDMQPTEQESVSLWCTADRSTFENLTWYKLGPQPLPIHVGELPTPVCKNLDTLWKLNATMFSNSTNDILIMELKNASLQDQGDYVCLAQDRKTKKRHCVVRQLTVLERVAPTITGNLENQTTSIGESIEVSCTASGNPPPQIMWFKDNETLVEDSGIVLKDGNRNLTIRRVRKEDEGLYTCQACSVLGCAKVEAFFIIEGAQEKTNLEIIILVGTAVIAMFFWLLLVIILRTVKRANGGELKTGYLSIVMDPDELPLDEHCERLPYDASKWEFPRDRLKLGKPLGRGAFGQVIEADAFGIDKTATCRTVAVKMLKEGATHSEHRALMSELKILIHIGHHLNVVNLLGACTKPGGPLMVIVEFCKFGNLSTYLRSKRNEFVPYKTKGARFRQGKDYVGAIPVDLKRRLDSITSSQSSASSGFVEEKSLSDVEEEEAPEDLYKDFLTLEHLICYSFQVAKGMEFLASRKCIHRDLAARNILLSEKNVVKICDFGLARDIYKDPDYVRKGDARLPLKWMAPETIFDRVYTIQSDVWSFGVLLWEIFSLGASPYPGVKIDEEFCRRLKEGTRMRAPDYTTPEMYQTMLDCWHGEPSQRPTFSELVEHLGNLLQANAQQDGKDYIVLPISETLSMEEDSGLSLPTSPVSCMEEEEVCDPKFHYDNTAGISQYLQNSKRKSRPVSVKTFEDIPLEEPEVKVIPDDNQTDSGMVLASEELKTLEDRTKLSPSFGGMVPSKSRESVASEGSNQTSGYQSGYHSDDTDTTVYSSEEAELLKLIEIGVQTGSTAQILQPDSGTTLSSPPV

## O=C(CSc1nc2ccccc2o1)Nc1ccc(C(=O)NC2CCCC2)cc1 [Compound 12a, 4–(2-(Benzo[d]oxazol-2-ylthio)acetamido)-N-cyclopentylbenzamide]
MCF-7 cell line; [1]
  IC50: 33.3 ± 2.9 µM
MCF-7 cell line; [2]
  IC50: 33.3 µM
HepG2 cell line; [3]
  IC50: 38.8 ± 3.2 µM
HepG2 cell line; [4]
  IC50: 38.8 µM

## O=C(CSc1nc2cc(Cl)ccc2o1)Nc1ccc(C(=O)NC2CCCC2)cc1 [Compound 12b, 4–(2-((5-Chlorobenzo[d]oxazol-2-yl)thio)acetamido)-N-cyclopentylbenzamide]
MCF-7 cell line; [1]
  IC50: 77 ± 7.3 µM
MCF-7 cell line; [2]
  IC50: 77.1 µM
HepG2 cell line; [3]
  IC50: 64.2 ± 6.1 µM
HepG2 cell line; [4]
  IC50: 64.1 µM

## Cc1ccc2oc(SCC(=O)Nc3ccc(C(=O)NC4CCCC4)cc3)nc2c1 [Compound 12c, N-Cyclopentyl-4–(2-((5-methylbenzo[d]oxazol-2-yl)thio)acetamido)benzamide]
MCF-7 cell line; [1]
  IC50: 36.7 ± 3.3 µM
MCF-7 cell line; [2]
  IC50: 36.7 µM
HepG2 cell line; [3]
  IC50: 74.3 ± 6.8 µM
HepG2 cell line; [4]
  IC50: 74.3 µM

## CC(C)(C)NC(=O)c1ccc(NC(=O)CSc2nc3ccccc3o2)cc1 [Compound 12d, 4–(2-(Benzo[d]oxazol-2-ylthio)acetamido)-N-(tert-butyl)benzamide]
WI-38 cell line
  IC50: 99.4 µM
  HillSlope best-fit value, WI-38: -0.3751
  LogIC50 best-fit value, WI-38: 1.997
MCF-7 cell line; [1]
  IC50: 44.1 ± 3.8 µM
MCF-7 cell line; [2]
  IC50: 44.1 µM
HepG2 cell line; [3]
  IC50: 23.6 ± 2.1 µM
HepG2 cell line; [4]
  IC50: 23.6 µM
VEGFR-2
  IC50: 0.195 µM
  HillSlope best-fit value, VEGFR-2: -0.4166
  LogIC50 best-fit value, VEGFR-2: 2.289 Log (nM)

## CC(C)(C)NC(=O)c1ccc(NC(=O)CSc2nc3cc(Cl)ccc3o2)cc1 [Compound 12e, N-(Tert-butyl)-4–(2-((5-chlorobenzo[d]oxazol-2-yl)thio)acetamido)benzamide]
MCF-7 cell line; [1]
  IC50: 62.3 ± 5.8 µM
MCF-7 cell line; [2]
  IC50: 62.2 µM
HepG2 cell line; [3]
  IC50: 71.6 ± 6.7 µM
HepG2 cell line; [4]
  IC50: 71.6 µM

## Cc1ccc2oc(SCC(=O)Nc3ccc(C(=O)NC(C)(C)C)cc3)nc2c1 [Compound 12f, N-(Tert-butyl)-4–(2-((5-methylbenzo[d]oxazol-2-yl)thio)acetamido)benzamide]
MCF-7 cell line; [1]
  IC50: 22.5 ± 1.8 µM
MCF-7 cell line; [2]
  IC50: 22.5 µM
HepG2 cell line; [3]
  IC50: 37 ± 3.4 µM
HepG2 cell line; [4]
  IC50: 37 µM
VEGFR-2
  IC50: 0.265 µM
  HillSlope best-fit value, VEGFR-2: -0.3283
  LogIC50 best-fit value, VEGFR-2: 2.423 Log (nM)

## COc1cccc(NC(=O)c2ccc(NC(=O)CSc3nc4ccccc4o3)cc2)c1 [Compound 12g, 4–(2-(Benzo[d]oxazol-2-ylthio)acetamido)-N-(3-methoxyphenyl)benzamide]
MCF-7 cell line; [1]
  IC50: 53 ± 5.1 µM
MCF-7 cell line; [2]
  IC50: 53 µM
HepG2 cell line; [3]
  IC50: 36.7 ± 2.9 µM
HepG2 cell line; [4]
  IC50: 36.6 µM

## COc1cccc(NC(=O)c2ccc(NC(=O)CSc3nc4cc(Cl)ccc4o3)cc2)c1 [Compound 12h, 4–(2-((5-Chlorobenzo[d]oxazol-2-yl)thio)acetamido)-N-(3-methoxyphenyl)benzamide]
MCF-7 cell line; [1]
  IC50: 85.6 ± 8.2 µM
MCF-7 cell line; [2]
  IC50: 85.7 µM
HepG2 cell line; [3]
  IC50: 102 ± 8.5 µM
HepG2 cell line; [4]
  IC50: 102 µM

## COc1cccc(NC(=O)c2ccc(NC(=O)CSc3nc4cc(C)ccc4o3)cc2)c1 [Compound 12i, N-(3-Methoxyphenyl)-4–(2-((5-methylbenzo[d]oxazol-2-yl)thio)acetamido)benzamide]
WI-38 cell line
  IC50: 76.8 µM
  HillSlope best-fit value, WI-38: -0.4944
  LogIC50 best-fit value, WI-38: 1.885
MCF-7 cell line; [1]
  IC50: 28 ± 2.1 µM
MCF-7 cell line; [2]
  IC50: 28 µM
HepG2 cell line; [3]
  IC50: 27.3 ± 2.2 µM
HepG2 cell line; [4]
  IC50: 27.3 µM
VEGFR-2
  IC50: 0.155 µM
  HillSlope best-fit value, VEGFR-2: -0.3818
  LogIC50 best-fit value, VEGFR-2: 2.190 Log (nM)

## O=C(CSc1nc2ccccc2o1)Nc1ccc(C(=O)Nc2cccc(Cl)c2)cc1 [Compound 12j, 4–(2-(Benzo[d]oxazol-2-ylthio)acetamido)-N-(3-chlorophenyl)benzamide]
MCF-7 cell line; [1]
  IC50: 50.9 µM
MCF-7 cell line; [2]
  IC50: 33.6 µM
MCF-7 cell line; MTT, 24 h treatment, mean of three experiments, read-out: In vitro IC50 MCF-7
  IC50: 33.6 ± 2.8 µM
HepG2 cell line; [3]
  IC50: 33.6 µM
HepG2 cell line; [4]
  IC50: 50.9 µM
HepG2 cell line; MTT, 24 h treatment, mean of three experiments, read-out: In vitro IC50 HepG2
  IC50: 50.9 ± 4.6 µM

## O=C(CSc1nc2cc(Cl)ccc2o1)Nc1ccc(C(=O)Nc2cccc(Cl)c2)cc1 [Compound 12k, 4–(2-((5-Chlorobenzo[d]oxazol-2-yl)thio)acetamido)-N-(3-chlorophenyl)benzamide]
MCF-7 cell line; [1]
  IC50: 86.6 ± 7.8 µM
MCF-7 cell line; [2]
  IC50: 86.7 µM
HepG2 cell line; [3]
  IC50: 28.4 ± 2.5 µM
HepG2 cell line; [4]
  IC50: 28.4 µM

## O=C(CSc1nc2ccccc2o1)Nc1ccc(C(=O)NNC(=O)c2cccc(Cl)c2)cc1 [Compound 13a, 2-(Benzo[d]oxazol-2-ylthio)-N-(4–(2-(3-chlorobenzoyl)hydrazine-1-carbonyl)phenyl)-acetamide]
MCF-7 cell line; [2]
  IC50: 32.4 µM
HepG2 cell line; [4]
  IC50: 25.5 µM
VEGFR-2
  IC50: 0.268 µM
  HillSlope best-fit value, VEGFR-2: -0.5089
  LogIC50 best-fit value, VEGFR-2: 2.428 Log (nM)

## O=C(CSc1nc2cc(Cl)ccc2o1)Nc1ccc(C(=O)NNC(=O)c2cccc(Cl)c2)cc1 [Compound 13b, 2-((5-Chlorobenzo[d]oxazol-2-yl)thio)-N-(4–(2-(3-chlorobenzoyl)hydrazine-1-carbonyl)-phenyl)acetamide]
MCF-7 cell line; [1]
  IC50: 26.3 ± 2.2 µM
MCF-7 cell line; [2]
  IC50: 26.3 µM
HepG2 cell line; [3]
  IC50: 42.1 ± 3.8 µM
HepG2 cell line; [4]
  IC50: 42.1 µM

## Cc1ccc2oc(SCC(=O)Nc3ccc(C(=O)NNC(=O)c4cccc(Cl)c4)cc3)nc2c1 [Compound 13c, N-(4–(2-(3-Chlorobenzoyl)hydrazine-1-carbonyl)phenyl)-2-((5-methylbenzo[d]oxazol-2-yl)thio)acetamide]
MCF-7 cell line; [1]
  IC50: 53.1 ± 3.7 µM
MCF-7 cell line; [2]
  IC50: 53.1 µM
HepG2 cell line; [3]
  IC50: 24.2 ± 2.1 µM
HepG2 cell line; [5]
  IC50: 24.4 µM
HepG2 cell line; [4]
  IC50: 24.4 µM

## CNC(=O)c1cc(Oc2ccc(NC(=O)Nc3ccc(Cl)c(C(F)(F)F)c3)cc2)ccn1 [Sorafenib, sorafenib, reference compound]
WI-38 cell line
  IC50: 22.1 µM
  HillSlope best-fit value, WI-38: -0.4247
  LogIC50 best-fit value, WI-38: 1.344
MCF-7 cell line; [1]
  IC50: 6.46 ± 0.3 µM
MCF-7 cell line; Homo sapiens, MCF7, supplement raw data, dose-response curve fit, read-out: IC50 best-fit value, MCF-7
  IC50: 6.46 µM
MCF-7 cell line; [2]
  IC50: 6.46 µM
HepG2 cell line; [3]
  IC50: 5.57 ± 0.4 µM
HepG2 cell line; [5]
  IC50: 5.57 µM
HepG2 cell line; [4]
  IC50: 5.57 µM
